Reference: patent US20120245137A1 (Zalicus Pharmaceuticals Ltd., priority 2009, published 2012)
Where two headings read alike, the source gives them in different places.

Tests used:
Format in all cases: cell-based
CAv1.2 = CAv1.2 (Homo sapiens, UniProt Q13936); assay: FLIPR data, CAv1.2 channel blocking (Table 6); conditions: for CAv1.2 IC50 Ratio closed/inact.: ratio closed/inactivated IC50
Human Cav 2.2 channels = Human Cav 2.2 channels (Homo sapiens, UniProt Q00975); assay: Fluorescent assay for CaV2.2 channels using potassium depolarization (VIPR/FLIPR); conditions: FLIPR data; for CAv2.2 IC50 Ratio closed/inact.: ratio closed/inactivated IC50
Outline: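 HEK293 cells stably expressing human Cav2.2 with α2δ and β subunits plus Kir2.3 were loaded with fluo-4 and incubated 30 min at 25 °C with compound in 4, 12, 25 or 30 mM potassium buffer. Channels were opened with 70 mM potassium (final) and calcium influx was read by fluorescence (Ex 480/Em 535 nm).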

T-type calcium channel [1] = molecular target: T-type calcium channel (Homo sapiens, UniProt O95180); assay: T-type channel blocking, FLIPR data (Table 6); conditions: for CAv3.2 IC50 Ratio closed/inact.: CAv3.2, ratio closed/inactivated IC50
Description: (§1) Another method, high-throughput spectrophotometric assay, utilizes loading of the cell lines with a fluorescent dye sensitive to intracellular calcium concentration and subsequent examination of the effects of compounds on the ability of depolarization by potassium chloride or other means to alter intracellular calcium levels.

T-type calcium channel [2] = molecular target: T-type calcium channel (Homo sapiens, UniProt O43497); assay: T-type channel blocking, FLIPR data (Table 6); conditions: CAv3.1
Description: as §1

[3] = closed state, read-out: CAv1.2 IC50 Closed
[4] = inactivated state, read-out: CAv1.2 IC50 Inact.
[5] = closed state, read-out: CAv2.2 IC50 Closed
[6] = inactivated state, read-out: CAv2.2 IC50 Inact.
[7] = CAv3.2, closed state, read-out: CAv3.2 IC50 Closed
[8] = CAv3.2, inactivated state, read-out: CAv3.2 IC50 Inact.

Chain of CAv1.2 (Q13936 whole entry): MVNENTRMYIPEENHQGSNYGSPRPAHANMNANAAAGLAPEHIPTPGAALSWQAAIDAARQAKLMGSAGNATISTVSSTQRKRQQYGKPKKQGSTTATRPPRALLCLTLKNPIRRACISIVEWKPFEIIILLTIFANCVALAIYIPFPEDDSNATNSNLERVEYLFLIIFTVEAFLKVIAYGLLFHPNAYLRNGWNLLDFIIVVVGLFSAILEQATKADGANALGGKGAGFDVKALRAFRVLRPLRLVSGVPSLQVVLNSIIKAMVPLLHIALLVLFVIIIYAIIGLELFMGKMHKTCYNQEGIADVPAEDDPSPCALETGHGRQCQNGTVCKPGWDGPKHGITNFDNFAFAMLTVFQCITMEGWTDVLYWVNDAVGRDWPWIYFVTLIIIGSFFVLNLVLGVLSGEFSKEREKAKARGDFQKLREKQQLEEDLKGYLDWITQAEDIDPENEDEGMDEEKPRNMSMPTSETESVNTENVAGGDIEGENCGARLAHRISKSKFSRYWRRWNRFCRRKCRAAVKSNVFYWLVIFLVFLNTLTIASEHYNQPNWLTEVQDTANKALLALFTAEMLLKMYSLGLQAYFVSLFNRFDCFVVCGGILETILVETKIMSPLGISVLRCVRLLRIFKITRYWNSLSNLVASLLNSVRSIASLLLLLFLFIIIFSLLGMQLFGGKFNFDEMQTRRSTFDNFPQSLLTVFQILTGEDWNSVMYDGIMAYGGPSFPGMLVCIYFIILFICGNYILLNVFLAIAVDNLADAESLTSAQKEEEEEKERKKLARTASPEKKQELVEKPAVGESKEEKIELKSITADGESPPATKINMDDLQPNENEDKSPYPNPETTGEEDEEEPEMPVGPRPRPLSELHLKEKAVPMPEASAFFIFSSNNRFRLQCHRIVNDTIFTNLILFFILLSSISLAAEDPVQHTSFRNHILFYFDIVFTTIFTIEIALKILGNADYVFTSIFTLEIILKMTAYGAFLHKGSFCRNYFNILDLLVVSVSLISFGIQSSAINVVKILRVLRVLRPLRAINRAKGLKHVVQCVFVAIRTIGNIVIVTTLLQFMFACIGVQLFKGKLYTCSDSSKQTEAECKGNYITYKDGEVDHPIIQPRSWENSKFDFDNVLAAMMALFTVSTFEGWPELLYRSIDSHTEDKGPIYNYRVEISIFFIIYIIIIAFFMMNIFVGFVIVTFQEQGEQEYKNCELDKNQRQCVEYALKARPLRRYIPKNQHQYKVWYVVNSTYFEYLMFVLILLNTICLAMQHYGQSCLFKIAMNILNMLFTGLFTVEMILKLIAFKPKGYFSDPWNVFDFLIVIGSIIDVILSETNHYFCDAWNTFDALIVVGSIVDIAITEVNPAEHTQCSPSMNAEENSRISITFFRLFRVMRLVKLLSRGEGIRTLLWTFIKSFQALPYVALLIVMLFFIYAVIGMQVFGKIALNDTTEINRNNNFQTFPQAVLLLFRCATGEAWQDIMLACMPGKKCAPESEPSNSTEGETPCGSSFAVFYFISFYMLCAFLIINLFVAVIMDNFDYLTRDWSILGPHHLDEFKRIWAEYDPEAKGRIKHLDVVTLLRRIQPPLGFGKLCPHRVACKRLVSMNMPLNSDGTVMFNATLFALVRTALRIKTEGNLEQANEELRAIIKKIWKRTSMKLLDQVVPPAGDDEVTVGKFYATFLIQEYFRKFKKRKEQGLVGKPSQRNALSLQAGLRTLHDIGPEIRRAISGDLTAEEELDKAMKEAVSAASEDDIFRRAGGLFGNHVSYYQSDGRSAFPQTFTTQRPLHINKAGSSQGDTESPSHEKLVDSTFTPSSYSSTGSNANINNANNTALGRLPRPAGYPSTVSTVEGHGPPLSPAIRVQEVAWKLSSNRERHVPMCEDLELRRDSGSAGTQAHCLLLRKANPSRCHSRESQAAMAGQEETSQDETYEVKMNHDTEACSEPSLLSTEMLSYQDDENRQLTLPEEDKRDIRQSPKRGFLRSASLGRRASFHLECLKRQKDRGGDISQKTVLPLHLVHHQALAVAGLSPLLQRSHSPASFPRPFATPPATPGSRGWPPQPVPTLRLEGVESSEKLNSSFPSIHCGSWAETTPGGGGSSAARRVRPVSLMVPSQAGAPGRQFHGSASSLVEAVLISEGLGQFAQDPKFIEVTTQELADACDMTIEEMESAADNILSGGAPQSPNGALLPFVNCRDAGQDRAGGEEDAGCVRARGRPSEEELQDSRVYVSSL
Chain of CAv1.2 (P54289 25-1103 partner): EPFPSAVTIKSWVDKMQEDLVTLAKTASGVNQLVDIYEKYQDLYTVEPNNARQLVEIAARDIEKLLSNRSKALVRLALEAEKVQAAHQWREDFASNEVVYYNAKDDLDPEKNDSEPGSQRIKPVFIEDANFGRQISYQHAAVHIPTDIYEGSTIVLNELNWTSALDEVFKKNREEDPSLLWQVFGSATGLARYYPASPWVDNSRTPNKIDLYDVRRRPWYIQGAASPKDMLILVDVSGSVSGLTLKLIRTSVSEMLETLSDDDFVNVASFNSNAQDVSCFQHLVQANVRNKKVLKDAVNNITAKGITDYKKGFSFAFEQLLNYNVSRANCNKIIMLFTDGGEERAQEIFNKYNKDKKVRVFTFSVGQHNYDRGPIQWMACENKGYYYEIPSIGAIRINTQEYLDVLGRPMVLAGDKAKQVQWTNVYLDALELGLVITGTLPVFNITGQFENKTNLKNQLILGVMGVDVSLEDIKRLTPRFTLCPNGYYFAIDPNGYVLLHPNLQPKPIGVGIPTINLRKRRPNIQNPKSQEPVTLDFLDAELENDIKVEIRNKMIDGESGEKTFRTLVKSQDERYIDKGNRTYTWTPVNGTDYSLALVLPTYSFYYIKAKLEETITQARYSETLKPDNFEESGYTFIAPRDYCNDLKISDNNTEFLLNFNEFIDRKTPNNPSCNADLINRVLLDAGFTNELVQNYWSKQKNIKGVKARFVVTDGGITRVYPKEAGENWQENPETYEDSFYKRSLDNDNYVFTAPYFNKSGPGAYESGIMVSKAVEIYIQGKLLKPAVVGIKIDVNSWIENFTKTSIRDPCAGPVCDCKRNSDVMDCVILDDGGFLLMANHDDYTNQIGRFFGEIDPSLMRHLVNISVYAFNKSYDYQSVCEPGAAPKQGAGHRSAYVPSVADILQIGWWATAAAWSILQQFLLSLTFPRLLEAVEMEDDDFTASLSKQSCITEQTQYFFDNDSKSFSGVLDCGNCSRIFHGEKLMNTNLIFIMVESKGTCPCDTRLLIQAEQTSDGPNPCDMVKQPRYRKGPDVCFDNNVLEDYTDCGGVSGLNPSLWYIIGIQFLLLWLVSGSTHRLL
Chain of CAv1.2 (Q08289 whole entry partner): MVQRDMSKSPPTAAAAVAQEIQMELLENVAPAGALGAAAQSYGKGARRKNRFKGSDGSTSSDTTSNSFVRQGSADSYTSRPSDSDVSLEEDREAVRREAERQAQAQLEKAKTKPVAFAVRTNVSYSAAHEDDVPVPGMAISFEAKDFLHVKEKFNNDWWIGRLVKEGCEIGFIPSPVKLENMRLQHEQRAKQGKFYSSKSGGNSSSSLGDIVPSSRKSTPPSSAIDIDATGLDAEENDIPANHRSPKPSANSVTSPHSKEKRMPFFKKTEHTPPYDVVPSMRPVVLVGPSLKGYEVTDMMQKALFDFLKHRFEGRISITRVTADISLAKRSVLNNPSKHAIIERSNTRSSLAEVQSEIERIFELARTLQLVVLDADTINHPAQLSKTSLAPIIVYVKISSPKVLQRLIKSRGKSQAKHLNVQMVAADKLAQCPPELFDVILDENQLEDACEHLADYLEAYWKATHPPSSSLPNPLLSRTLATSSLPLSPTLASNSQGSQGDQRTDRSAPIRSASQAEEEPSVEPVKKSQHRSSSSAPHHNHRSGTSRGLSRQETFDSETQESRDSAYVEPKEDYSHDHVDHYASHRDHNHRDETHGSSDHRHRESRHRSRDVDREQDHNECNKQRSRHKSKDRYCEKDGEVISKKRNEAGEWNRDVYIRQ

| Compound | IC50 (CAv1.2; [3]) [µM] | IC50 (CAv1.2; [4]) [µM] | CAv1.2 IC50 Ratio closed/inact. (CAv1.2) | IC50 (Human Cav 2.2 channels; [5]) [µM] | IC50 (Human Cav 2.2 channels; [6]) [µM] | CAv2.2 IC50 Ratio closed/inact. (Human Cav 2.2 channels) | IC50 (T-type calcium channel [1]; [7]) [µM] | IC50 (T-type calcium channel [1]; [8]) [µM] | CAv3.2 IC50 Ratio closed/inact. (T-type calcium channel [1]) | IC50 (T-type calcium channel [2]) [µM] |
| --- | --- | --- | --- | --- | --- | --- | --- | --- | --- | --- |
| CC(C)(C[C@H]1C[C@@H](NC(=O)c2ccc(OCC(F)(F)F)nc2)C1)S(=O)(=O)c1cccc(C(F)(F)F)c1 [Compound 737] | 4.23 | 1.28 | 3.3 | 0.86 | 0.04 | 21.5 | 2.06 | 0.52 | 4 | 2.18 |
| CC(C)(C[C@H]1C[C@H](NC(=O)c2ccc(C(F)(F)F)cn2)C1)S(=O)(=O)c1cccc(C(F)(F)F)c1 [Compound 722] | 8.04 | 2.56 | 3.1 | 1.21 | 0.23 | 5.3 | 3.68 | 2.66 | 1.4 | 2.76 |
| CC(C)(C1CC(CNC(=O)c2ccc(F)c(Cl)c2)C1)S(=O)(=O)c1cccc(C(F)(F)F)c1 (stereo not shown) [Compound 618] | 4.08 | 0.3 | 13.6 | 1.3 | 0.12 | 10.8 | 1.99 | 0.35 | 5.7 | 2.47 |
| CC(C)([C@H]1C[C@H](NS(=O)(=O)c2ccc(F)c(C(F)(F)F)c2)C1)S(=O)(=O)c1cccc(C(F)(F)F)c1 [Compound 667] | 7.76 | 2.56 | 3 | 10 | 1.08 | 9.3 | 2.7 | 2.16 | 1.3 | 2.5 |
| CNC1(CC(=O)NCc2ccc(S(=O)(=O)c3cccc(C(F)(F)F)c3)cc2)CCCCC1 [Compound 660] | 7.48 | 4.93 | 1.5 | 3.56 | 0.61 | 5.8 | ≥ 10 | 10 | 1 | ≥ 10 |
| CC(C)([C@H]1C[C@@H](NC(=O)c2ccc(OCC(F)(F)F)nc2)C1)S(=O)(=O)c1cccc(C(F)(F)F)c1 [Compound 582] | 5.77 | 2.06 | 2.8 | 2.88 | 0.19 | 15.2 | 4.35 | 1.31 | 3.3 | ≥ 10 |
| CC(C)([C@H]1C[C@H](NS(=O)(=O)c2ccc(C(F)(F)F)nc2)C1)S(=O)(=O)c1cc(F)cc(C(F)(F)F)c1 [Compound 609] | 9.99 | 4.32 | 2.3 | 4.17 | 1.17 | 3.6 | ≥ 10 | 2.54 | 3.9 | 9.91 |
| CC(C)(C1CC(CNC(=O)c2ccc(OCC(F)(F)F)nc2)C1)S(=O)(=O)c1cccc(C(F)(F)F)c1 (stereo not shown) [Compound 619] | 4.42 | 1.36 | 3.3 | 1.66 | 0.26 | 6.4 | 3.29 | 1.27 | 2.6 | 5.12 |
| CC(C)([C@H]1C[C@@H](NC(=O)CC2(N)CCCCC2)C1)S(=O)(=O)c1cc(F)cc(C(F)(F)F)c1 [Compound 653] | – | ≥ 10 | – | 10 | 1.36 | 7.4 | – | 10 | – | ≥ 10 |
| CC(C)([C@H]1C[C@@H](NS(=O)(=O)c2ccc(C(F)(F)F)nc2)C1)S(=O)(=O)c1cc(F)cc(C(F)(F)F)c1 [Compound 602] | 9.77 | 3.94 | 2.5 | 6.08 | 0.75 | 8.1 | ≥ 10 | 5.38 | 1.9 | 6.36 |
| CC(C)([C@H]1C[C@@H](Nc2ccnc(C(F)(F)F)n2)C1)S(=O)(=O)c1cccc(OC(F)(F)F)c1 [Compound 646] | 8 | 2.33 | 3.4 | 4.23 | 1.03 | 4.1 | 5.27 | 3.9 | 1.4 | 4.59 |
| CC(C)([C@H]1C[C@H](NS(=O)(=O)c2ccc(C(F)(F)F)cc2)C1)S(=O)(=O)c1cc(F)cc(C(F)(F)F)c1 [Compound 605] | 5.29 | 1.92 | 2.8 | 5.4 | 0.87 | 6.2 | 4.79 | 2.21 | 2.2 | 4.35 |
| CC(C)(C[C@H]1C[C@H](NC(=O)c2ccc(Cl)cn2)C1)S(=O)(=O)c1cccc(C(F)(F)F)c1 [Compound 720] | 7.01 | 2.45 | 2.9 | 0.83 | 0.16 | 5.2 | 3.95 | 2.05 | 1.9 | 4.5 |
| CC(C)([C@H]1C[C@H](NS(=O)(=O)c2ccc(C(F)(F)F)cc2Cl)C1)S(=O)(=O)c1cccc(C(F)(F)F)c1 [Compound 666] | ≥ 10 | 2.29 | 4.4 | 10 | 0.65 | 15.4 | 2.16 | 2.17 | 1 | 1.59 |
| CC(C)([C@H]1C[C@@H](NS(=O)(=O)c2ccc(C(F)(F)F)cc2)C1)S(=O)(=O)c1cc(F)cc(C(F)(F)F)c1 [Compound 598] | 9.38 | 2.83 | 3.3 | 5.74 | 0.7 | 8.2 | ≥ 10 | 4.56 | 2.2 | 7.56 |
| CC(C)([C@H]1C[C@@H](NC(=O)c2ccc(C(F)(F)F)cc2S(C)(=O)=O)C1)S(=O)(=O)c1cccc(OC(F)(F)F)c1 [Compound 643] | ≥ 10 | 9.25 | 1.1 | 10 | 0.47 | 21.3 | 8.38 | 7.16 | 1.2 | 4.17 |
| CC(C)([C@H]1C[C@H](NC(=O)c2ccc(C(F)(F)F)cc2)C1)S(=O)(=O)c1cccc(C(F)(F)F)c1 [Compound 677] | 6.35 | 2.23 | 2.8 | 2.86 | 0.22 | 13 | 1.78 | 1.82 | 1 | 2.79 |
